Results published in patent US8754054B2, “Antibacterial compounds, methods of making them, and uses thereof” (Albany Molecular Research, Inc., priority 2010, dated 2014).
Values after ≈ are worked out from the molar mass of the structure shown.

What was measured:
[1] = test system: E. coli 2269; assay: Antibacterial activity in vitro, NCCLS dilution method (Table 10); assay type: cell-based; conditions: E. coli 2269, Gram −, ESBL-producer
Description: (§1) NCCLS standards for antimicrobial susceptibility testing using the dilution method were followed. See: Performance Standards for Antimicrobial Susceptibility Testing; Fourteenth Informational Supplement. NCCLS Document M100-S14 (ISBN 1-56238-516-X), 2004. NCCLS, 940 West Valley Road, Suite 1400, Wayne, Pa. 19087-1898 USA, 2004; Methods for Dilution Antimicrobial Susceptibility Tests for Bacteria that Grow Aerobically; Approved Standard—Sixth Edition. NCCLS document M7-A6 (IBSBN 1-56238-486-4), NCCLS, 940 West Valley Road, Suite 1400, Wayne, Pa. 19087-1898 USA, 2003, which are hereby incorporated by reference in their entirety.

[2] = test system: S. aureus 1725; assay: as above; assay type: cell-based; conditions: S. aureus 1725, Gram +, LRSA
Description: as §1

[3] = test system: K. pneumoniae 2239; assay: as above; assay type: cell-based; conditions: K. pneumoniae 2239, Gram −
Description: as §1

[4] = test system: S. aureus 2012; assay: as above; assay type: cell-based; conditions: S. aureus 2012, Gram +, VISA
Description: as §1

[5] = test system: S. pneumoniae 376; assay: as above; assay type: cell-based; conditions: S. pneumoniae 376, Gram +, Quin-R
Description: as §1

[6] = test system: S. pneumoniae 940; assay: as above; assay type: cell-based; conditions: S. pneumoniae 940, Gram +, PRSP
Description: as §1

[7] = test system: H. parainfluenzae 2319 (ATCC 7901); assay: as above; assay type: cell-based; conditions: Gram −
Description: as §1

[8] = test system: S. pneumoniae 975; assay: as above; assay type: cell-based; conditions: S. pneumoniae 975, Gram +, PSSP
Description: as §1

[9] = test system: K. pneumoniae 2262; assay: as above; assay type: cell-based; conditions: K. pneumoniae 2262, Gram −, ampC, MDR
Description: as §1

[10] = test system: H. influenzae 1742; assay: as above; assay type: cell-based; conditions: H. influenzae 1742, Gram −, ampR
Description: as §1

[11] = test system: S. marcescens 1635; assay: as above; assay type: cell-based; conditions: S. marcescens 1635, Gram −
Description: as §1

[12] = test system: S. aureus 1137; assay: as above; assay type: cell-based; conditions: S. aureus 1137, Gram +, MRSA
Description: as §1

[13] = test system: E. coli 102 (ATCC 25922); assay: as above; assay type: cell-based; conditions: Gram −, QC strain
Description: as §1

[14] = test system: S. aureus (ATCC 29213); assay: as above; assay type: cell-based; conditions: Gram +, MSSA
Description: as §1

[15] = test system: M. catarrhalis 557; assay: as above; assay type: cell-based; conditions: M. catarrhalis 557, Gram −
Description: as §1

[16] = test system: S. aureus (ATCC 43300); assay: as above; assay type: cell-based; conditions: Gram +, MRSA
Description: as §1

[17] = test system: S. aureus (ATCC 6538); assay: as above; assay type: cell-based; conditions: Gram +, MSSA
Description: as §1

[18] = test system: E. faecium 700221; assay: as above; assay type: cell-based; conditions: E. faecium 700221, Gram +, VRE
Description: as §1

[19] = test system: P. aeruginosa (ATCC 27853); assay: as above; assay type: cell-based; conditions: Gram −
Description: as §1

[20] = test system: MRSA 43300; assay: Antibacterial activity, NCCLS dilution method (Table 9); assay type: cell-based, S. aureus; conditions: Staphylococcus aureus, MRSA, MRSA 43300; dilution method; labels marked a tested as a mixture of diastereomers; read-out: MRSA 43300 MIC
In short: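 Susceptibility was tested by the NCCLS dilution method for bacteria that grow aerobically. Procedures followed the NCCLS approved standard (sixth edition) together with its fourteenth informational supplement.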

C[C@@H](O)[C@H]1C(=O)N2C(C(=O)O)=C(S[C@@H]3CN[C@H](C(=O)N(C)C)C3)[C@H](C)[C@H]12 [Meropenem]
antibacterial activity (dilution susceptibility test) [1]: 0.03 | antibacterial activity (dilution susceptibility test) [2]: 0.25 | antibacterial activity (dilution susceptibility test) [3]: 0.06 | antibacterial activity (dilution susceptibility test) [4]: >4 | antibacterial activity (dilution susceptibility test) [5]: 0.015 | antibacterial activity (dilution susceptibility test) [6]: 1 | antibacterial activity (dilution susceptibility test) [7]: 0.03 | antibacterial activity (dilution susceptibility test) [8]: 0.015 | antibacterial activity (dilution susceptibility test) [9]: >4 | antibacterial activity (dilution susceptibility test) [10]: 0.06 | antibacterial activity (dilution susceptibility test) [11]: 0.12 | antibacterial activity (dilution susceptibility test) [12]: >4 | antibacterial activity (dilution susceptibility test) [13]: 0.03 | antibacterial activity (dilution susceptibility test) [14]: 0.12 | antibacterial activity (dilution susceptibility test) [15]: ≦0.04

CC(=O)NC[C@H]1CN(c2ccc(N3CCOCC3)c(F)c2)C(=O)O1 [Linezolid]
antibacterial activity (dilution susceptibility test) [16]: 1 | antibacterial activity (dilution susceptibility test) [1]: >64 | antibacterial activity (dilution susceptibility test) [2]: 4 | antibacterial activity (dilution susceptibility test) [3]: >64 | antibacterial activity (dilution susceptibility test) [4]: 1 | antibacterial activity (dilution susceptibility test) [5]: 1 | antibacterial activity (dilution susceptibility test) [6]: 0.5 | antibacterial activity (dilution susceptibility test) [7]: 16 | antibacterial activity (dilution susceptibility test) [8]: 1 | antibacterial activity (dilution susceptibility test) [17]: 0.5 | antibacterial activity (dilution susceptibility test) [9]: >64 | antibacterial activity (dilution susceptibility test) [10]: 8 | antibacterial activity (dilution susceptibility test) [11]: >64 | antibacterial activity (dilution susceptibility test) [12]: 4 | antibacterial activity (dilution susceptibility test) [18]: 1 | antibacterial activity (dilution susceptibility test) [13]: >64 | antibacterial activity (dilution susceptibility test) [19]: >64 | antibacterial activity (dilution susceptibility test) [14]: 4 | antibacterial activity (dilution susceptibility test) [15]: 8

CNC(=O)c1c(C)cc2c(c1O)[C@]1(O)C(=O)c3cc4c(c(O)c3C(=O)[C@]1(OC)[C@H](O)C2)C(=O)C=C(NC1O[C@@H](C)[C@H](OC)[C@@H](O)[C@H]1OC)C4=O (mixture of isomers) [Example 19, (6R,6aS,14aR)-1,6,8,14a-Tetrahydroxy-11-((3R,4R,5R,6S)-4-hydroxy-3,5-dimethoxy-6-methyltetrahydro-2H-pyran-2-ylamino)-6a-methoxy-N,3-dimethyl-7,9,12,14-tetraoxo-5,6,6a,7,9,12,14,14a-octahydrobenzo[a]tetracene-2-carboxamide]
MIC [20]: 2 µg/mL (≈ 2.87 µM)

COC(=O)c1c(C)cc2c(c1O)[C@]1(O)C(=O)c3cc4c(c(O)c3C(=O)[C@]1(OC)[C@H](O)C2)/C(=N/CCCO)C=C(N[C@H]1O[C@@H](C)[C@H](OC)[C@@H](O)[C@H]1OC)C4=O [Example 48, (6R,6aS,14aR,E)-Methyl 1,6,8,14a-tetrahydroxy-11-((2S,3R,4R,5R,6S)-4-hydroxy-3,5-dimethoxy-6-methyltetrahydro-2H-pyran-2-ylamino)-9-(3-hydroxypropylimino)-6a-methoxy-3-methyl-7,12,14-trioxo-5,6,6a,7,9,12,14,14a-octahydrobenzo[a]tetracene-2-carboxylate]
MIC [20]: 1 µg/mL (≈ 1.32 µM)

COC(=O)c1c(C)cc2c(c1OCC(=O)OCc1ccccc1)[C@]1(O)C(=O)c3cc4c(c(O)c3C(=O)[C@]1(OC)[C@H](O)C2)C(=O)C=C(N[C@H]1O[C@@H](C)[C@H](OC)[C@@H](O)[C@H]1OC)C4=O [Example 8, (6R,6aS,14aR)-Methyl 1-(2-(benzyloxy)-2-oxoethoxy)-6,8,14a-trihydroxy-11-((2S,3R,4R,5R,6S)-4-hydroxy-3,5-dimethoxy-6-methyltetrahydro-2H-pyran-2-ylamino)-6a-methoxy-3-methyl-7,9,12,14-tetraoxo-5,6,6a,7,9,12,14,14a-octahydrobenzo[a]tetracene-2-carboxylate]
MIC [20]: 1 µg/mL (≈ 1.18 µM)

COC(=O)c1c(C)cc2c(c1OCc1ccccc1)[C@]1(O)C(=O)c3cc4c(c(O)c3C(=O)[C@]1(OC)[C@H](O)C2)C(=O)C=C(N[C@H]1O[C@@H](C)[C@H](OC)[C@@H](O)[C@H]1OC)C4=O [Example 7, (6R,6aS,14aR)-Methyl 1-(benzyloxy)-6,8,14a-trihydroxy-11-((2S,3R,4R,5R,6S)-4-hydroxy-3,5-dimethoxy-6-methyltetrahydro-2H-pyran-2-ylamino)-6a-methoxy-3-methyl-7,9,12,14-tetraoxo-5,6,6a,7,9,12,14,14a-octahydrobenzo[a]tetracene-2-carboxylate]
MIC [20]: 0.12 µg/mL (≈ 0.152 µM)

CO[C@@H]1[C@@H](O)[C@@H](OC)C(NC2=CC(=O)c3c(cc4c(c3O)C(=O)[C@]3(OC)[C@H](O)Cc5cc(C)c(C(=O)NCc6ccccc6)c(O)c5[C@]3(O)C4=O)C2=O)O[C@H]1C (mixture of isomers) [Example 30, (6R,6aS,14aR)—N-Benzyl-1,6,8,14a-tetrahydroxy-11-((3R,4R,5R,6S)-4-hydroxy-3,5-dimethoxy-6-methyltetrahydro-2H-pyran-2-ylamino)-6a-methoxy-3-methyl-7,9,12,14-tetraoxo-5,6,6a,7,9,12,14,14a-octahydrobenzo[a]tetracene-2-carboxamide]
MIC [20]: 0.12 to 0.5 µg/mL (≈ 0.155 to 0.647 µM)

CO[C@@H]1[C@@H](O)[C@@H](OC)C(NC2=CC(=O)c3c(cc4c(c3O)C(=O)[C@]3(OC)[C@H](O)Cc5cc(C)c(C(=O)NCc6ccc(F)cc6)c(O)c5[C@]3(O)C4=O)C2=O)O[C@H]1C (mixture of isomers) [Example 26, (6R,6aS,14aR)—N-(4-Fluorobenzyl)-1,6,8,14a-tetrahydroxy-11-((3R,4R,5R,6S)-4-hydroxy-3,5-dimethoxy-6-methyltetrahydro-2H-pyran-2-ylamino)-6a-methoxy-3-methyl-7,9,12,14-tetraoxo-5,6,6a,7,9,12,14,14a-octahydrobenzo[a]tetracene-2-carboxamide]
MIC [20]: 0.5 µg/mL (≈ 0.632 µM)

CO[C@@H]1[C@@H](O)[C@@H](OC)C(NC2=CC(=O)c3c(cc4c(c3O)C(=O)[C@]3(OC)[C@H](O)Cc5cc(C)c(C(=O)OCc6ccccc6)c(O)c5[C@]3(O)C4=O)C2=O)O[C@H]1C (mixture of isomers) [Example 37, (6R,6aS,14aR)-Benzyl 1,6,8,14a-tetrahydroxy-11-((3R,4R,5R,6S)-4-hydroxy-3,5-dimethoxy-6-methyltetrahydro-2H-pyran-2-ylamino)-6a-methoxy-3-methyl-7,9,12,14-tetraoxo-5,6,6a,7,9,12,14,14a-octahydrobenzo[a]tetracene-2-carboxylate]
MIC [20]: 0.25 µg/mL (≈ 0.323 µM)

COC(=O)c1c(C)c(Br)c2c(c1O)[C@]1(O)C(=O)c3cc4c(c(O)c3C(=O)[C@]1(OC)[C@H](O)C2)C(=O)C=C(N[C@H]1O[C@@H](C)[C@H](OC)[C@@H](O)[C@H]1OC)C4=O [Example 38, (6R,6aS,14aR)-Methyl 4-bromo-1,6,8,14a-tetrahydroxy-11-((2S,3R,4R,5R,6S)-4-hydroxy-3,5-dimethoxy-6-methyltetrahydro-2H-pyran-2-ylamino)-6a-methoxy-3-methyl-7,9,12,14-tetraoxo-5,6,6a,7,9,12,14,14a-octahydrobenzo[a]tetracene-2-carboxylate]
MIC [20]: 1 µg/mL (≈ 1.29 µM)

COC(=O)c1c(C)cc2c(c1O)[C@]1(O)C(=O)c3cc4c(c(O)c3C(=O)[C@]1(OC)[C@H](O)C2)C(=O)C=C(N[C@H]1O[C@@H](C)[C@H](OC)/C(=N/OCCN)[C@H]1OC)C4=O [Example 52, (6R,6aS,14aR)-Methyl 11-((2S,3R,5R,6S,Z)-4-(2-aminoethoxyimino)-3,5-dimethoxy-6-methyltetrahydro-2H-pyran-2-ylamino)-1,6,8,14a-tetrahydroxy-6a-methoxy-3-methyl-7,9,12,14-tetraoxo-5,6,6a,7,9,12,14,14a-octahydrobenzo[a]tetracene-2-carboxylate]
MIC [20]: 0.12 to 0.25 µg/mL (≈ 0.159 to 0.332 µM)
